This is an account of results in PMC7915026, “Sulfaguanidine Hybrid with Some New Pyridine-2-One Derivatives: Design, Synthesis, and Antimicrobial Activity against Multidrug-Resistant Bacteria as Dual DNA Gyrase and DHFR Inhibitors” (Antibiotics, 2021).

The subject of assay [1] is CD4+ and CD8+ T lymphocytes. The assay is described as follows: In vivo T lymphocyte subsets from peripheral blood, flow cytometry. As to conditions: mice. For orientation: Flow cytometry measures light scatter and fluorescence of single cells or particles in a stream.
The subject of the next assay is spleen and thymus. The assay is described as follows: In vivo immunomodulation: immune organ weight and indexes. On the set-up: Spleen index: unit not given here. As to conditions: mice. The source says:
Both the spleen and thymus have important antibacterial and fungal immune organ responses, and any change in weight, and indexes can reflect the level of immune regulation. Additionally, the relative spleen and thymus indexes are important indices for nonspecific immunity and potential immunomodulatory compounds that increase the spleen and thymus weight. This increase is due to immune cells’ stimulation in the spleen and thymus. […]

The structures appear in SMILES notation.

For the compound `COc1ccc(/C=C(\C#N)C(=O)Nc2ccc(S(=O)(=O)NC(=N)N)cc2)cc1O` [Compound 2d, N-(4-(N-Carbamimidoylsulfamoyl)phenyl)-2-cyano-3-(3-hydroxy-4-methoxyphenyl) acryl-amide], in assay [1], the “T cells CD4+” value stood at 79.61 ± 0.3% and the “T cells CD8+” value is given as 27.05 ± 0.5%. Also, in the assay on spleen and thymus, the Spleen index is 0.018 ± 0.00, the Spleen weight is 250 ± 0.03 mg, the Thymus index was 0.532 ± 0.06 mg/g and the Thymus weight turned out to be 15.56 ± 0.54 mg.
